According to patent publication US8163789B2, “Selective and dual-action p53/MDM2/MDM4 antagonists” (University of Pittsburgh—of the Commonwealth System of …, priority 2007, dated 2012):

What follows are molecules tested on HCT116 cells (assay: GI50 against HCT116 cells in culture). Conditions: Homo sapiens, HCT-116, imidazole scaffold, Table 2.
Type: cell-based
Experimental: A second approach for increasing affinity, entails introducing substituents in the 2-position of the imidazole ring to gain additional van der Waals interaction and even water solubility. A substituent in the 2-position would mimic the interactions of the Leu (FSDLWKLL) in p53, which contributes additional van der Waals interactions in addition to FWL. Optimization of compounds that belong to this family was carried out as shown in Scheme 1. Table 2 lists representative analogs that were synthesized with their GI50 values against HCT116 cells in culture. The chemistry to accomplish substitution at position-2 of the immidazole ring would involve generation of the carbanion using LDA and subsequent alkylation with iminium salts or other alkylating agents.
For `Clc1ccc(-c2ncn(CC3CC3)c2-c2c[nH]c3ccccc23)cc1`, the GI50 was roughly 35 µM. For `Clc1cccc(Cc2ncn(CC3CC3)c2-c2c[nH]c3ccccc23)c1`, the GI50 was roughly 25 µM. With `Clc1ccc(-c2ncn(CC3CC3)c2-c2ccc(Cl)cc2)cc1` the GI50 was roughly 10 µM. Molecule `Clc1ccc(-c2ncn(CC3CC3)c2-c2cc3ccc(Cl)cc3[nH]2)cc1` has a GI50 of roughly 40 µM. Work on `Clc1ccc(-c2ncn(CC3CC3)c2-c2c[nH]c3cc(Cl)ccc23)cc1` yielded a GI50 of roughly 40 µM. `CC(c1ccc(Cl)cc1)n1cnc(-c2ccc(Cl)cc2)c1-c1cc2ccc(Cl)cc2[nH]1` (stereo not shown) was tested, and the GI50 was roughly 30 µM. For `C[C@@H](c1ccc(Cl)cc1)n1cnc(-c2ccc(Cl)cc2)c1-c1cc2ccc(Cl)cc2[nH]1`, the GI50 was roughly 20 µM. With `C[C@H](c1ccc(Cl)cc1)n1cnc(-c2ccc(Cl)cc2)c1-c1cc2ccc(Cl)cc2[nH]1` the GI50 was roughly 20 µM. `CC(c1cccc2ccccc12)n1cnc(-c2ccc(Cl)cc2)c1-c1cc2ccc(Cl)cc2[nH]1` (stereo not shown) showed a GI50 of roughly 5 µM. With `Clc1ccc2c(-c3c(-c4ccc5c(c4)OCO5)ncn3CC3CC3)c[nH]c2c1` the GI50 was roughly 1 µM. `Clc1ccc2c(-c3c(-c4ccc(Cl)c(Cl)c4)ncn3CC3CC3)c[nH]c2c1` gave a GI50 of roughly 10 µM. Work on `Fc1cc(Cl)ccc1-c1c(-c2ccc(Cl)cc2)ncn1Cc1ccccc1` yielded a GI50 of roughly 20 µM. `CC(C)(C)OC(=O)n1cc(-c2c(-c3ccc(Cl)cc3)ncn2CC2CC2)c2ccc(Cl)cc21` showed a GI50 of roughly 50 µM. In the case of `CN(C)Cc1nc(-c2ccc(Cl)cc2)c(-c2ccc(Cl)cc2)n1CC1CC1`, the GI50 is reported as roughly 20 µM.

The molecules below were run against MDM2 (Homo sapiens, UniProt Q00987) (assay: NMR-based binding assay, MDM2). Conditions: imidazole scaffold, Table 2.
MDM2, sequence (Q00987 whole entry, the tested form may be a part): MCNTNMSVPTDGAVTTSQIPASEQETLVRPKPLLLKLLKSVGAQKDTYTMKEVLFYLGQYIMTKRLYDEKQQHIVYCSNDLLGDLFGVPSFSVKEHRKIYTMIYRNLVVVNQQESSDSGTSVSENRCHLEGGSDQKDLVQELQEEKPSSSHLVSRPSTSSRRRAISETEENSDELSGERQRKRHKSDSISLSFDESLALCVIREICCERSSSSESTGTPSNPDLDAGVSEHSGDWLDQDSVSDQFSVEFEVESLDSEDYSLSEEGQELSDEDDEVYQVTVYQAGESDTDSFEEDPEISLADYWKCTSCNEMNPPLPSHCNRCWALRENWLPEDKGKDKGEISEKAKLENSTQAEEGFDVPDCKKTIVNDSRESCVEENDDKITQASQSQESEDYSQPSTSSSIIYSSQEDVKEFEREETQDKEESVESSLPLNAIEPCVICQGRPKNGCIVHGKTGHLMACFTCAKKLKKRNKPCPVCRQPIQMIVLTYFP
Experimental: (§1) In one of its aspects, the present invention provides a method for generating and screening virtual libraries based on 40 different MCRs having the indole fragment. The inventive method comprises docking individual molecules from the virtual library into a high resolution structure of the MDM2 protein. Docking is carried out by maintaining the same positional constraints on the indole ring of the docked molecule to those for the indole side chain in the high resolution X-ray structure of MDM2-p53 peptide. The compounds identified from docking experiments as potential inhibitors of MDM2-p53 interaction are then synthesized and tested for the inhibitory activity using an NMR-based binding assay. […] A similar strategy was used to identify and select compounds that could potentially be used as inhibitors for disrupting MDM4-p53 interaction.
Such an NMR-based screen has many advantages. For example, this screening method allows for the rapid determination of an approximate KA for the small molecule inhibitors, with the possibility of obtaining a more accurate KA value at a later time by titrating the p53-MDM2 complex using increasing concentrations of the inhibitor of interest. A second advantage of using this technique is that it allows identification of the binding site of the small molecule in the target protein by investigating the chemical shift perturbations that occur on binding. This information can then be used to further refine the chemical scaffold with an aim towards improving the affinity of the molecule for its target. Finally, NMR-based screening yields valuable information about promiscuous inhibitors which act as false positives by precipitating the target protein through hydrophobic effects. This information is not available when classical screening approaches such as fluorescence polarization or ELISA type assays are used for screening.
(§2) The compounds identified using MCR were then screened for the ability to bind MDM2 or MDM4 (KA) (primary assay). The molecules identified as binders of MDM2 or MDM4 by the primary assay are subsequently tested for their ability to disrupt the MDM2/p53-peptide complex (KD) in a secondary assay. Based on the results from the primary and secondary assays, further downstream assays involving screening using various cell lines (PC3, A549, MDAMB231) and determination of the growth inhibition constants may be performed for a select sub-set of molecules. Western blot analysis of certain compounds is performed to determine p53, MDM2, and p21 content.
`Clc1ccc(-c2ncn(CC3CC3)c2-c2ccc(Cl)cc2)cc1` gave a Ki of roughly 50 µM.

Same assay, conditions: imidazolidine scaffold, Table 3
Work on `COC(=O)C1(c2ccccc2)N=CN(CC(C)C)C1c1ccc(Cl)cc1` (stereo not shown) yielded a Ki of roughly 10 µM. `COC(=O)C1(c2ccccc2)N=CN(C2CCCCC2)C1c1ccc(Cl)cc1` (stereo not shown) showed a Ki of roughly 20 µM. In the case of `COC(=O)C1(c2ccc(Cl)cc2)N=CN(CC2CC2)C1c1cc2ccc(Cl)cc2[nH]1` (stereo not shown), the Ki is reported as roughly 50 µM. For `COC(=O)C1(CCSC)N=CN(CC2CC2)C1c1ccc(Br)cc1` (stereo not shown), the Ki was roughly 20 µM. For `COC(=O)C1(C)N=CN(CC2CC2)C1c1c[nH]c2ccccc12` (stereo not shown), the Ki was roughly 50 µM. Work on `COC(=O)C1(c2ccccc2)N=CN(CC2CC2)C1c1c[nH]c2ccccc12` (stereo not shown) yielded a Ki of roughly 30 µM. For `COC(=O)C1(c2ccccc2)N=CN(CC2CC2)C1c1ccc(Br)cc1` (stereo not shown), the Ki was roughly 6 µM. `COC(=O)C1(c2ccccc2)N=CN(CC2CCCNC2)C1c1ccc(Cl)cc1` (stereo not shown) was tested, and the Ki was roughly 20 µM. `COC(=O)C1(c2ccccc2)N=CN(Cc2cccc(N)c2)C1c1ccc(Cl)cc1` (stereo not shown) gave a Ki of roughly 5 µM. In the case of `COC(=O)C1(CC(C)C)N=CN(CC2CC2)C1c1ccc(Cl)cc1` (stereo not shown), the Ki is reported as roughly 1 µM. Work on `COC(=O)C1(C)N=CN(CC2CC2)C1c1ccc(Cl)cc1` (stereo not shown) yielded a Ki of roughly 2 µM. `O=C(O)C1(c2ccccc2)N=CN(CC2CC2)C1c1ccc(Cl)cc1` (stereo not shown) was tested, and the Ki was roughly 50 µM. `COC(=O)C1(c2ccccc2)N=CN(C2CCNCC2)C1c1ccc(Cl)cc1` (stereo not shown) was tested, and the Ki was roughly 50 µM. `COC(=O)C1(c2ccccc2)N=CN(C(C)c2ccc(Cl)cc2)C1c1ccc(Cl)cc1` (stereo not shown) showed a Ki of roughly 20 µM. For `COC(=O)C1(c2ccccc2)N=CN(c2ccc(Cl)cc2)C1c1ccc(Cl)cc1` (stereo not shown), the Ki was roughly 5 µM. For `O=C(NCCN1CCOCC1)C1(c2ccccc2)N=CN(CC2CC2)C1c1ccc(Cl)cc1` (stereo not shown), the Ki was 1 µM. `O=C(NCCCN1CCOCC1)C1(c2ccccc2)N=CN(CC2CC2)C1c1ccc(Cl)cc1` (stereo not shown) was tested, and the Ki was 1 µM. With `COC(=O)C1(c2ccccc2)N=CN(CC2CC2)C1c1cc2ccc(Cl)cc2[nH]1` (stereo not shown) the Ki was roughly 40 µM. In the case of `COC(=O)C1(C)N=CN(CC2CC2)C1c1cc2ccc(Cl)cc2[nH]1` (stereo not shown), the Ki is reported as roughly 50 µM. For `COC(=O)C1(CCSC)N=CN(CC2CC2)C1c1ccc(Cl)cc1` (stereo not shown), the Ki was roughly 10 µM. In the case of `COC(=O)C1(c2ccccc2)N=CN(Cc2cccnc2)C1c1ccc(Cl)cc1` (stereo not shown), the Ki is reported as roughly 5 µM. Work on `COC(=O)C12N=CN(CC3CC3)C1c1ccc(Cl)cc1C2C` (stereo not shown) yielded a Ki of roughly 2 µM. With `O=C(N1CCNCC1)C1(c2ccccc2)N=CN(CC2CC2)C1c1ccc(Cl)cc1` (stereo not shown) the Ki was roughly 1 µM. For `COC(=O)C1(c2ccc(Cl)cc2)N=CN(CC2CC2)C1c1ccc(Cl)cc1` (stereo not shown) [drawing 44], the Ki was roughly 5 µM. `COC(=O)C1(c2ccccc2)N=CN(CC2CC2)C1c1ccc(Cl)cc1F` (stereo not shown) [drawing 45] showed a Ki of roughly 2 µM. `COC(=O)C1(c2ccccc2)N=CN(CC2CC2)C1c1ccc(Cl)cc1F` (stereo not shown) [drawing 58] showed a Ki of roughly 2 µM. With `COC(=O)C1(c2ccc(Cl)cc2)N=CN(CC2CC2)C1c1ccc(Cl)cc1` (stereo not shown) [drawing 67] the Ki was roughly 40 µM.

These molecules were tested against T1, MDM4 (Homo sapiens, UniProt O15151) (assay: NMR-based binding assay, MDM4). Conditions: imidazolidine scaffold, Table 3.
T1 sequence (O15151 1-490): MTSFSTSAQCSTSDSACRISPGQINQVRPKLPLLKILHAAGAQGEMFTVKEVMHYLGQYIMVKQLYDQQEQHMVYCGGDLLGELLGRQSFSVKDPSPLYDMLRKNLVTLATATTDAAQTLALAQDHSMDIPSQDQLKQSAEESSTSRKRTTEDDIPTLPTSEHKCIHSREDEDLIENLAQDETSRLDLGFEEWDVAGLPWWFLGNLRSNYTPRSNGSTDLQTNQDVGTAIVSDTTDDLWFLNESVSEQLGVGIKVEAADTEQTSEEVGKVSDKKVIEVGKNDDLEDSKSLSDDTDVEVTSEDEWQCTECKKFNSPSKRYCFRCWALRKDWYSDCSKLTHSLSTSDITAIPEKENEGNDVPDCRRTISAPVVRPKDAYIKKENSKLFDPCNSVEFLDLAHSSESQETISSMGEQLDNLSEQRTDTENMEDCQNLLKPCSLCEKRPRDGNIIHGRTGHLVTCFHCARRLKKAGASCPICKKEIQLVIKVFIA
Experimental: as §1
as §2, with “Western blot analysis of certain compounds is performed to determine p53, MDM2, and p21 content.” left out
With `COC(=O)C1(c2ccccc2)N=CN(Cc2cccc(N)c2)C1c1ccc(Cl)cc1` (stereo not shown) the Ki was roughly 5 µM.
